Test results reported in ChEMBL document CHEMBL1147873, “Synthesis and biological evaluation of novel analogues of dictyostatin” (Bioorg Med Chem Lett, 2007).

Columns and labels:
Assay type in all cases: functional, cell-based
PANC-1 = assay: Cytotoxicity against human PANC1 cells after 72 hrs by MTT assay; conditions: PANC-1, 72 h
NCI = assay: Cytotoxicity against human Taxol-adriamycin-resistant NCI cells after 72 hrs by MTT assay
ASPC1 = assay: Cytotoxicity against human AsPC1 cells after 72 hrs by MTT assay; conditions: ASPC1, 72 h
DLD-1 = assay: Cytotoxicity against human DLD1 cells after 72 hrs by MTT assay; conditions: DLD-1, 72 h

Compound	IC50 (PANC-1) [nM]	IC50 (NCI) [nM]	IC50 (ASPC1) [nM]	IC50 (DLD-1) [nM]
C=C/C=C\[C@H](C)[C@@H]1OC(=O)/C=C\C=C\[C@@H](C)[C@@H](O)C[C@H](O)/C=C\[C@H](C)[C@H](O)[C@@H](C)CCCC[C@@H](O)[C@@H]1C	130	1500	170	85
C=C/C=C\[C@H](C)[C@@H]1OC(=O)/C=C\C=C\[C@@H](C)[C@@H](O)C[C@@H](O)/C=C\[C@H](C)[C@H](O)[C@@H](C)CCCC[C@@H](O)[C@@H]1C	1500	2100	2100	790
C=C/C=C\[C@H](C)[C@@H]1OC(=O)/C=C\C=C\[C@@H](C)[C@@H](O)C[C@H](OC)/C=C\[C@H](C)[C@H](O)[C@@H](C)C[C@@H](C)CC[C@@H](O)[C@@H]1C	9.7	8.2	31	2.4
C=C/C=C\[C@H](C)[C@H](OC(N)=O)[C@@H](C)[C@H](O)[C@@H](C)C/C(C)=C\[C@H](C)[C@@H](O)[C@@H](C)/C=C\[C@@H](O)C[C@@H]1OC(=O)[C@H](C)[C@@H](O)[C@H]1C [DISERMOLIDE]		160		
C=C/C=C\[C@H](C)[C@@H]1OC(=O)/C=C\C=C\[C@@H](C)[C@@H](O)C[C@@H](O)/C=C\[C@H](C)[C@H](O)[C@@H](C)C[C@@H](C)CC[C@@H](O)[C@@H]1C	240	1100	410	150
C=C/C=C\[C@H](C)[C@@H]1OC(=O)/C=C\C=C\[C@@H](C)[C@@H](O)C[C@H](O)/C=C\[C@H](C)[C@H](O)[C@@H](C)C[C@@H](C)CC[C@@H](O)[C@@H]1C [DICTYOSTATIN]		9.8		
